Measured values taken from patent US20260274828A1, “BROAD SPECTRUM ANTIFUNGAL KETO-ALKYL-PYRIDINIUM COMPOUNDS” (priority 2023, published 2026).
“Also recorded” adds a separate entry of the source.

What was measured:
C. auris [1] = conditions: cited from earlier work
C. albicans [2] = experiment: Checkerboard assay with clinical antifungals (FICI); type: cell-based, Candida albicans; conditions: for MIC: Candida albicans, read-out: MICA (MIC of each drug alone)
Description: (§1) To determine if compounds interacted with clinically used antifungal drugs, checkerboard assays were performed and fractional inhibitory concentration indices were determined. […] The FICI for compound B and fluconazole is 8.25 due to the 8-fold increase in fluconazole concentration in the combination; however, the concentration of compound B at FIC is reduced by 4-fold relative to compound B as a single agent (Table 3).

HepG2 cells = experiment: Mammalian cell culture toxicity assay (LDH release and XTT); type: cell-based, human
Description: HepG2 cells (ATCC, #) were maintained and cultured in HepG2 media (DMEM (Gibco, Cat #11965-092) with 5% FBS, 20 mM Glutamine, and Penicillin/Streptomycin) at 37° C. with 5% CO2. Cells were seeded in 96-well plates at a density of 1.25×10^4 cells/well and incubated overnight at 37° C. with 5% CO2, then media was removed and replaced with media containing a two-fold dilution series of compounds with equal DMSO concentrations across all wells including no compound controls. Cells were incubated for an additional 24 hours. Supernatant was removed and used to quantify lactate dehydrogenase release using the CyQuant LDH assay kit (Invitrogen, Cat #C20300) following the manufacturer's directions. LDH signal was normalized to a max lysis control. The remaining cells were then used to quantify cellular metabolism by XTT. Briefly, cells were washed, then 0.9 mg/mL XTT (Sigma, CAT #X4626)+320 μg/mL PMS ([…] methosulfate; Sigma, Cat #P9625) in HepG2 media was added to each well. Plates were incubated at 37° C., with 5% CO2 for 2 hours, then absorbance was measured at 490 nm.

C. albicans [3] = experiment: Planktonic MIC, CLSI guidelines; type: cell-based, Candida albicans
Description: (§2) Minimum inhibitory concentrations were determined using CLSI guidelines (Beattie & Krysan, 2021; Wiederhold, 2021). All yeasts were cultured overnight in 3 mL YPD at 30° C., then washed twice in sterile PBS. Two-fold serial dilutions of each compound were prepared in RMPI+MOPS pH 7 (Gibco RPMI 1640 with L-glutamine [11875-093] and 0.165M 352 MOPS), then 1×10^3 cells were added per well. Plates were incubated at 37° C. for 24 hours (C. albicans and S. cerevisiae) or 72 hours (C. neoformans). For A. fumigatus and F. oxysporum wells were inoculated with 1.25×10^4 conidia. Plates were incubated at 37° C. for 48 hours for A. fumigatus and 72 hours for F. oxysporum. All MICs are defined as the well with complete growth inhibition as determined by visual inspection with the exception of MICs of fluconazole against C. albicans where the MIC is defined as at least 50% reduction in growth compared to the control.

F. oxysporum = experiment: Planktonic MIC, CLSI guidelines; type: cell-based; conditions: Fusarium oxysporum; strain DUMC Fo
Description: as §2

A. fumigatus [4] = experiment: Planktonic MIC, CLSI guidelines; type: cell-based; conditions: Aspergillus fumigatus
Description: as §2

C. neoformans = experiment: Planktonic MIC, CLSI guidelines; type: cell-based; conditions: Cryptococcus neoformans
Description: as §2

C. glabrata = experiment: Planktonic MIC, CLSI guidelines; type: cell-based; conditions: Nakaseomyces glabratus; strain KK2001
Description: as §2

S. aureus = experiment: Antibacterial MIC; type: cell-based; conditions: Staphylococcus aureus; strain Newman
[5] = system: A. fumigatus CEA10 hyphae; experiment: Metabolic activity of hyphae/biofilms (resazurin); type: cell-based; conditions: Aspergillus fumigatus, CEA10HYPHAE, 24 h pre-incubation, 24 h exposure, read-out: hyphal metabolic activity IC50
From the text: (§3) CLSI testing of antifungal activity of molds is based on inoculation with conidia and, therefore, measures inhibition of germination (Widerhold, 2021). For example, voriconazole is the gold standard for treatment of pulmonary infection and inhibits germination. The most important A. fumigatus infection that requires non-systemic therapy is fungal keratitis (Hoffman et al., 2022). At the time of clinical presentation, A. fumigatus is exclusively in the hyphal form. […] A. fumigatus CEA10 was incubated for 24 hours prior to exposure to a dilution series of compound B or C for an additional 24 hours. The metabolic activity of the cultures was determined using resazurin as previously described (Mao et al., 2020). […] To further characterize the mode of action of the KAPs against A. fumigatus hyphae, CEA10 was treated with compound B for 24 hours and then the cells were stained with propidium iodide, a dye that is excluded from cells with intact membranes (FIG. 2D).

[6] = system: A. fumigatus CEA10 hyphal cells; experiment: Propidium iodide staining and DIC imaging of hyphae; type: cell-based, Aspergillus fumigatus; conditions: 16 μg/mL, 24 hours
From the text: as §3

C. auris [7] = experiment: Planktonic MIC, CLSI guidelines; type: cell-based, Candida auris; conditions: Candidozyma auris
Description: as §2

red blood cells = experiment: Red blood cell lysis assay; type: cell-based, sheep; conditions: 2 h, normalized to max lysis by triton-x
Description: Hemolysis assays were performed with defibrinated sheep's blood (Lampire, Cat #7239001). Blood was washed three times with PBS then resuspended to about 50% hematocrit in PBS. A two-fold dilution series of the compounds in 200 μL PBS with equal DMSO concentration across the series, then red blood cells were added with a final concentration of 2% hematocrit. Cells were incubated at RT for 2 hours in a v-bottom microtiter plate, then plates were spun down and supernatant was transferred to a flat bottom microtiter plate for absorbance measurement at 570 nm. Compounds were tested in technical triplicate in at least two independent assays performed on different days.

A. fumigatus [8] = experiment: Checkerboard assay with clinical antifungals (FICI); type: cell-based, Aspergillus fumigatus; conditions: for MIC: Aspergillus fumigatus, read-out: MICA (MIC of each drug alone); for MIC / MICC (MIC in combination): checkerboard B x Voriconazole
Description: as §1

P. aeruginosa = experiment: Antibacterial MIC; type: cell-based, Pseudomonas aeruginosa
C. albicans [9] = experiment: Planktonic MIC, CLSI guidelines; type: cell-based, Candida albicans; conditions: data not shown
[10] = system: medically important yeasts and molds; experiment: Antifungal activity, general statements; type: cell-based
Description: as §2

C. albicans [11] = conditions: Yamashita et al., 2019; cited from earlier work
human cell lines = conditions: Kim et al., 2021; cited from earlier work
[12] = checkerboard B x Amphotericin B
[13] = Candida albicans, C. albicans SC5314, Table 4, read-out: C. albicans MIC
[14] = A. fumigatus CEA10, Table 4, read-out: A. fumigatus MIC

For `[H]/N=C(\N/C(=N/[H])NCCCCCCNC(=N)NC(=N)Nc1ccc(Cl)cc1)Nc1ccc(Cl)cc1` [2% chlorhexidine, chlorhexidine], the “reduction of fungal burden of colonized porcine skin” value (C. auris [1]; 72 hour experiment, three daily applications, Johnson et al., 2021) is given as “about 0.5 log10”.

For `C[C@@H]1[C@H](O)[C@@H](C)/C=C/C=C/C=C/C=C/C=C/C=C/C=C/[C@H](O[C@@H]2O[C@H](C)[C@@H](O)[C@H](N)[C@@H]2O)C[C@@H]2O[C@](O)(C[C@@H](O)C[C@@H](O)[C@H](O)CC[C@@H](O)C[C@@H](O)CC(=O)O[C@H]1C)C[C@H](O)[C@H]2C(=O)O` [Amphotericin B, reference compound], the “MICA (MIC of each drug alone)” value (C. albicans [2]; [12]) was 0.5 µg/mL and the “MICC (MIC in combination)” value (C. albicans [2]; [12]) was 0.25 µg/mL.

In the case of `Cc1cc[n+](CC(=O)c2ccc(-c3ccc(Oc4ccccc4)cc3)cc2)cc1.[Br-]` [Compound B], the “LD50, cell lysis assay” value (HepG2 cells; HepG2, LDH release, 24 h) is reported as 9 µg/mL, the “LD50, metabolic activity assay” value (HepG2 cells; HepG2, XTT, 24 h) is reported as 20 µg/mL and the “LD50, toxicity against human cell lines” value (HepG2 cells; readout not given) is reported as 20 µg/mL. The MIC (C. albicans [3]; Candida albicans, strain SC5314, read-out: MIC) was 8 µg/mL, the MIC (C. albicans [3]; Candida albicans, strain TWO #15, fluconazole-resistant, read-out: MIC) was 4 µg/mL and the MIC (C. albicans [3]; strain TWO #17, fluconazole-resistant) was 4 µg/mL. The MIC (F. oxysporum) was 16 µg/mL, the MIC (A. fumigatus [4]; strain AF293, read-out: MIC) was 1 µg/mL and the MIC (A. fumigatus [4]; strain CEA10, read-out: MIC) was 8 µg/mL. The MIC (A. fumigatus [4]; strain Cas^R, read-out: MIC) was 16 µg/mL, the MIC (A. fumigatus [4]; strain SPF98, read-out: MIC) was 16 µg/mL and the MIC (C. neoformans; strain DUMC 118.00) was 2 µg/mL. The MIC (C. neoformans; strain DUMC 122.01) was 4 µg/mL, the MIC (C. neoformans; strain H99) was 2 µg/mL and the MIC (C. glabrata) was 1 µg/mL. For the same molecule, the MIC (S. aureus) was 16 µg/mL, the IC50 [5] was 3.9 µg/mL and the FICI (C. albicans [2]; B with Amphotericin B) was 0.75. For the same molecule, the FICI (C. albicans [2]; B with Fluconazole) was 8.25, the MIC (C. albicans [2]; [12]) was 4 µg/mL and the MIC (C. albicans [2]; checkerboard B x Fluconazole) was 16 µg/mL. For the same molecule, the “MICC (MIC in combination)” value (C. albicans [2]; [12]) was 1 µg/mL, the “MICC (MIC in combination)” value (C. albicans [2]; checkerboard B x Fluconazole) was 4 µg/mL and the “reduction of concentration at FIC relative to single agent” value (C. albicans [2]; combination with fluconazole) was 4 fold. The “interaction with clinical antifungal” value (C. albicans [2]; with amphotericin B) was “indifferent (2 < FICI < 4 = indifferent)”, the “interaction with clinical antifungal” value (C. albicans [2]; with caspofungin) was “indifferent (2 < FICI < 4 = indifferent)” and the “interaction with clinical antifungal” value (C. albicans [2]; with fluconazole) was “antagonistic”. The “DIC images of hyphae” value [6] was “loss of refractivity and fragmentation of hyphae”, the propidium iodide staining [6] was “uniform uptake of dye” and the MIC (C. auris [7]; strain 0381, drug susceptible) was 16 µg/mL. The MIC (C. auris [7]; strain 0390, multi-drug resistant) was 4 µg/mL, the “red blood cell lysis LD50” value (red blood cells) was 78.6 µg/mL and the MIC (A. fumigatus [8]) was 16 µg/mL. The FICI (A. fumigatus [8]; B with Voriconazole) was 0.625, the “MICC (MIC in combination)” value (A. fumigatus [8]) was 2 µg/mL and the “interaction with clinical antifungal” value (A. fumigatus [8]; with voriconazole) was “indifferent (2 < FICI < 4 = indifferent)”. The “activity compared to cetylpyridinium chloride” value (P. aeruginosa; P. aeruginosa) was “more active”, the MIC (P. aeruginosa; Pseudomonas aeruginosa, strain PAO1) was 32 µg/mL and the “change in MIC with glycerol instead of glucose as carbon source” value (C. albicans [9]) was “not observed”.

With `COc1ccc(F)c(-c2ccc(C(=O)C[n+]3ccc(N)cc3)cc2)c1.[Br-]` [Compound C] the “red blood cell lysis LD50” value (red blood cells) was > 1000 µg/mL and the antifungal activity [10] was “inactive; also recorded: no antifungal activity”.

For `N=C(N)c1ccc(OCCCC2CCN(CCCOc3ccc(C(=N)N)cc3)CC2)cc1` [Compound T-2307], the “MIC on 2% glycerol compared to 2% dextrose” value (C. albicans [11]) is given as “decreases dramatically”.

With `OC(Cn1cncn1)(Cn1cncn1)c1ccc(F)cc1F` [Fluconazole, reference compound] the MIC (C. albicans [2]; checkerboard B x Fluconazole) was 0.125 µg/mL, the “MICC (MIC in combination)” value (C. albicans [2]; checkerboard B x Fluconazole) was 1 µg/mL and the “increase in fluconazole concentration in the combination” value (C. albicans [2]; combination with compound B) was 8 fold.

Work on `Nc1cc[n+](CC(=O)c2ccc3c(c2)OC(c2cccc(C(F)(F)F)c2)(c2cccc(C(F)(F)F)c2)O3)cc1.[Cl-]` [KAP-1] yielded an MIC (C. albicans [3]; [13]) of 1 µg/mL and an MIC (A. fumigatus [4]; [14]) of 16 µg/mL.

With `Cc1ccc(-c2ccc(C(=O)C[n+]3ccc(N)cc3)cc2)c2ccccc12.[Cl-]` [KAP-2] the MIC (C. albicans [3]; [13]) was 8 µg/mL and the MIC (A. fumigatus [4]; [14]) was 16 µg/mL.

`Cc1cc[n+](CC(=O)c2ccc(-c3ccc(Oc4ccccc4)cc3)cc2)cc1.[Cl-]` [KAP-3] showed an MIC (C. albicans [3]; [13]) of 4 µg/mL and an MIC (A. fumigatus [4]; [14]) of 8 µg/mL.

`Cc1cc[n+](CC(=O)c2ccc(-c3ccc(Oc4ccc(F)cc4)cc3)cc2)cc1.[Cl-]` [KAP-4] gave an MIC (C. albicans [3]; [13]) of 4 µg/mL and an MIC (A. fumigatus [4]; [14]) of 16 µg/mL.

For `Nc1cc[n+](CC(=O)c2ccc(Oc3ccccc3)cc2)cc1.[Cl-]` [KAP-5], the MIC (A. fumigatus [4]; [14]) was > 64 µg/mL.

In the case of `C[C@@H](c1ncncc1F)[C@](O)(Cn1cncn1)c1ccc(F)cc1F` [Voriconazole, reference compound], the MIC (A. fumigatus [8]) is reported as 0.25 µg/mL and the “MICC (MIC in combination)” value (A. fumigatus [8]) is reported as 0.125 µg/mL.

In the case of `CCCCCCCCCCCCCCCC[n+]1ccccc1` [cetylpyridinium chloride], the “LD50, toxicity against human cell lines” value (human cell lines) is given as 6 µg/mL.

For `N=C(NCCCCCCNC(=N)NC(=N)Nc1ccc(Cl)cc1)NC(=N)Nc1ccc(Cl)cc1.O=C(O)[C@H](O)[C@@H](O)[C@H](O)[C@H](O)CO.O=C(O)[C@H](O)[C@@H](O)[C@H](O)[C@H](O)CO` [chlorhexidine gluconate], the “activity against C. auris colonization of skin” value (C. auris [1]; comparison stated in Example 2) is given as “minimally active”.
